This is an account of results in US20260265199A1, “CRYSTALLINE FORMS OF (R)-2-AMINO-5-(4-(2-(3,5-DIFLUOROPHENYL)-2-HYDROXYACETAMIDO)-2-METHYLPHENYL)-N-ISOPROPYLNICOTINAMIDE AND METHODS FOR USING THE SAME” (HIBERCELL, INC., priority 2023, published 2026).

Assay type in all cases: physicochemical
The nature of series [1]: Solubility study of Form A of the compound of formula (I) in solvents (aliquot addition, visual). The note with it: thermodynamic from solid, room temperature, read-out: Approximate Solubility. The protocol: A solubility study of Form A in various solvent systems was conducted according to the following protocol: aliquots of the test solvent systems were added to weighed samples of Form A, prepared according to Example 27, at room temperature. The resulting mixtures were sonicated between solvent additions to facilitate dissolution. Complete dissolution of the test material was determined visually. The solubility was estimated based on the total solvent used to provide complete dissolution.

Series [2] is described as follows: Water activity study of Form A of the compound of formula (I). The note with it: for Result (XRPD of solids): ambient; for Solid form (XRPD) after storage in solvent mixture: ambient conditions. The protocol:
The water activity study was conducted using the following protocol: solutions were prepared by adding a sufficient amount of Form A, prepared according to Example 27, to a given solvent mixture such that excess solids were present. The mixture was then agitated for a predetermined period of time (Table 31) in a sealed vial under ambient conditions. After agitation, the solids were isolated for analysis and characterized using XRPD.

A short description of series [3]: Relative humidity stressing of Form D. The settings on record: ambient.
Series [4] in a line: Dynamic vapor sorption (5% to 95% RH, Example 26 method). The protocol:
Automated vapor sorption (VS) data were collected on a Surface Measurement System DVS Intrinsic instrument, or a VTI SGA-100 instrument. Samples were not dried prior to analysis. Sorption and desorption data were collected over a range from 5% to 95% RH at 10% RH increments under a nitrogen purge. The equilibrium criterion used for analysis was less than 0.0100% weight change in 5 minutes with a maximum equilibration time of 3 hours. Data were not corrected for the initial moisture content of the samples.

Structures are written as SMILES. “Also recorded” adds a separate entry of the source. Where two headings read alike, the source gives them in different places.

Take `Cc1cc(NC(=O)[C@H](O)c2cc(F)cc(F)c2)ccc1-c1cnc(N)c(C(=O)NC(C)C)c1` [Form A of the compound of formula (I), (R)-2-amino-5-(4-(2-(3,5-difluorophenyl)-2-hydroxyacetamido)-2-methylphenyl)-N-isopropylnicotinamide]: the solubility in series [1] (organic solvent or mixture, acetone) was > 115 mg/mL; in series [1] (organic solvent or mixture, acetonitrile), 12 mg/mL; in series [1] (organic solvent or mixture, chloroform) it was < 3 mg/mL; in series [1] (organic solvent or mixture, diethyl ether), < 2 mg/mL; in series [1] (organic solvent or mixture, ethanol) it was 49 mg/mL; in series [1] (organic solvent or mixture, ethyl acetate), 26 mg/mL. Besides, the solubility is < 3 mg/mL in series [1] (organic solvent or mixture, heptane); 14 mg/mL in series [1] (organic solvent or mixture, isopropyl alcohol); 103 mg/mL in series [1] (organic solvent or mixture, methanol); > 150 mg/mL in series [1] (organic solvent or mixture, tetrahydrofuran); < 4 mg/mL in series [1] (organic solvent or mixture, toluene); < 3 mg/mL in series [1] (water). Also, the “Result (XRPD of solids)” value in series [2] (IPA/water 90:10 v/v, 0.67 aw, 27 days) was “Form H”; in series [2] (MeCN/water 92:8 v/v, 0.82 aw, 4 days) it was “Form C”; in series [2] (water/acetone 80:20 v/v, 0.96 aw, 4 days), “Form A*”. The “Solid form (XRPD) after storage in solvent mixture” value in series [2] (acetonitrile/water (92:8 v/v), four days) was “Form C”; in series [2] (isopropanol/water (90:10 v/v), 27 days), “Form H”; in series [2] (isopropanol/water (94:6 v/v), four days), “mixture of Form A and Form H”; in series [2] (water/acetone (80:20 v/v), four days) it was “Form A”.
Turning to `Cc1cc(NC(=O)[C@H](O)c2cc(F)cc(F)c2)ccc1-c1cnc(N)c(C(=O)NC(C)C)c1` [Form D, (R)-2-amino-5-(4-(2-(3,5-difluorophenyl)-2-hydroxyacetamido)-2-methylphenyl)-N-isopropylnicotinamide], in series [3] (75% RH, 4 days), the Observation result was “Free flowing” and the “Result (XRPD form)” value is “remained physically stable; also recorded: Form D”. For the same molecule, in series [3] (97% RH, 20 days), the Observation result is reported as “Free flowing” and the “Result (XRPD form)” value is reported as “no phase changed had occurred; also recorded: remained physically stable; also recorded: Form D”. Besides, in series [4], the “Solid form recovered from the DVS experiment (XRPD)” value is “remained as Form D”. The “Weight gain and loss through the sorption/desorption cycle (DVS)” value in series [4] (5 to 95% RH) is “approximately 1.9%”. The “Hygroscopicity (DVS)” value in series [4] (from 5 to 95% RH) is reported as “limited hygroscopicity”.
